# In PubChem BioAssay AID330 (DTP/NCI, 2004):
# “And” between values parts separate entries of the source, which are not always exact repeats. Equal entries are not always repeated. Toxic doses and inconclusive results are not listed.
# System: P388 leukemia ip, CD2F1 mice, survival T/C
# Test: NCI In Vivo Anticancer Drug Screen. Data for tumor model P388 Leukemia (intraperitoneal) in CD2F1 (CDF1) mice
# Details: endpoint: median survival time, higher = longer survival
# Outline: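 Mice carrying the transplanted tumor received test compound or vehicle. Survival was recorded in each group, and the value is the treated-group measurement divided by that of the vehicle-treated control group.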
# [1] = dose: 50.0 mg/kg/injection, schedule: Q01DX005 (ip), vehicle: saline with Tween-80
# [2] = dose: 100.0 mg/kg/injection, schedule: Q01DX005 (ip), vehicle: saline with Tween-80
# [3] = dose: 6.25 mg/kg/injection, schedule: Q01DX005 (ip), vehicle: saline with Tween-80
# [4] = dose: 12.5 mg/kg/injection, schedule: Q01DX005 (ip), vehicle: saline with Tween-80
# [5] = dose: 25.0 mg/kg/injection, schedule: Q01DX005 (ip), vehicle: saline with Tween-80
# [6] = dose: 200.0 mg/kg/injection, schedule: Q01DX005 (ip), vehicle: saline with Tween-80
# [7] = dose: 25.0 mg/kg/injection, schedule: Q01DX009 (ip), vehicle: saline with Tween-80
# [8] = dose: 50.0 mg/kg/injection, schedule: Q01DX009 (ip), vehicle: saline with Tween-80
# [9] = dose: 100.0 mg/kg/injection, schedule: Q01DX009 (ip), vehicle: saline with Tween-80
# [10] = dose: 50.0 mg/kg/injection, schedule: Q04DX003 (ip), vehicle: Klucel (hydroxypropylcellulose) (HPC)
smiles,measurement,setting,value
O=S(=O)(c1cc(Cl)c(Cl)cc1Cl)N(CCCCCN(S(=O)(=O)c1cc(Cl)c(Cl)cc1Cl)S(=O)(=O)c1cc(Cl)c(Cl)cc1Cl)S(=O)(=O)c1cc(Cl)c(Cl)cc1Cl,T/C,"dose: 60.0 mg/kg/injection, schedule: Q01DX005 (ip), vehicle: Klucel (hydroxypropylcellulose) (HPC)",91 % of control
same,T/C,"dose: 120.0 mg/kg/injection, schedule: Q01DX005 (ip), vehicle: Klucel (hydroxypropylcellulose) (HPC)",91 % of control
C[Si](C)(C)OC=C1CCCCC1,T/C,"dose: 50.0 mg/kg/injection, schedule: Q01DX009 (ip), vehicle: olive oil, sesame oil, peanut oil",113 % of control
same,T/C,"dose: 100.0 mg/kg/injection, schedule: Q01DX009 (ip), vehicle: olive oil, sesame oil, peanut oil",122 % of control
same,T/C,"dose: 200.0 mg/kg/injection, schedule: Q01DX009 (ip), vehicle: olive oil, sesame oil, peanut oil",108 % of control
Cc1ccc(C(=O)NC2c3ccccc3Oc3ccccc32)cc1,T/C,[1],90 % of control
same,T/C,[2],86 % of control
CC(O)CO (stereo not given),T/C,"dose: 1.56 % in 0.5 ml injection vol, schedule: Q01DX009 (ip), vehicle: water",112 % of control
same,T/C,"dose: 3.12 % in 0.5 ml injection vol, schedule: Q01DX009 (ip), vehicle: water",119 % of control
same,T/C,"dose: 6.25 % in 0.5 ml injection vol, schedule: Q01DX009 (ip), vehicle: water",110 % of control and 119 % of control
same,T/C,"dose: 12.5 % in 0.5 ml injection vol, schedule: Q01DX009 (ip), vehicle: water",111 % of control and 113 % of control
same,T/C,"dose: 25.0 % in 0.5 ml injection vol, schedule: Q01DX009 (ip), vehicle: water",104 % of control and 110 % of control
same,T/C,"dose: 50.0 % in 0.5 ml injection vol, schedule: Q01DX009 (ip), vehicle: water",88 % of control
CCCOc1ccc(-c2nc(-c3ccc(N)cc3)cs2)cc1,T/C,"dose: 50.0 mg/kg/injection, schedule: Q01DX009 (ip), vehicle: Klucel (hydroxypropylcellulose) (HPC)",111 % of control
same,T/C,"dose: 100.0 mg/kg/injection, schedule: Q01DX009 (ip), vehicle: Klucel (hydroxypropylcellulose) (HPC)",109 % of control
same,T/C,"dose: 200.0 mg/kg/injection, schedule: Q01DX009 (ip), vehicle: Klucel (hydroxypropylcellulose) (HPC)",109 % of control
COc1cccc2c1C(=O)c1c(O)c3c(c(O)c1C2=O)C[C@@](O)(C(C)=O)C[C@@H]3OC1CC(N2CCSCC2)C(O)C(C)O1 (stereo not given in full),T/C,"dose: 0.39 mg/kg/injection, schedule: Q04DX003 (ip), vehicle: distilled water + Tween-80",118 % of control
same,T/C,"dose: 0.78 mg/kg/injection, schedule: Q04DX003 (ip), vehicle: distilled water + Tween-80",100 % of control
same,T/C,"dose: 1.56 mg/kg/injection, schedule: Q04DX003 (ip), vehicle: distilled water + Tween-80",103 % of control
same,T/C,"dose: 3.12 mg/kg/injection, schedule: Q04DX003 (ip), vehicle: distilled water + Tween-80",113 % of control
same,T/C,"dose: 6.25 mg/kg/injection, schedule: Q04DX003 (ip), vehicle: distilled water + Tween-80",106 % of control
same,T/C,"dose: 6.25 mg/kg/injection, schedule: Q04DX003 (ip), vehicle: water",105 % of control
same,T/C,"dose: 12.5 mg/kg/injection, schedule: Q04DX003 (ip), vehicle: distilled water + Tween-80",123 % of control
same,T/C,"dose: 12.5 mg/kg/injection, schedule: Q04DX003 (ip), vehicle: water",113 % of control
same,T/C,"dose: 25.0 mg/kg/injection, schedule: Q04DX003 (ip), vehicle: distilled water + Tween-80",124 % of control
same,T/C,"dose: 25.0 mg/kg/injection, schedule: Q04DX003 (ip), vehicle: water",123 % of control
same,T/C,"dose: 50.0 mg/kg/injection, schedule: Q04DX003 (ip), vehicle: water",169 % of control
CSCCCNC(=O)c1csc(-c2csc(CCNC(=O)[C@@H](NSc3ccccc3[N+](=O)[O-])[C@@H](C)O)n2)n1,T/C,[3],100 % of control
same,T/C,[4],104 % of control
same,T/C,[5],95 % of control
same,T/C,[1],87 % of control
same,T/C,[6],87 % of control
Cc1ccc(S(=O)(=O)N/N=C/c2cccc([N+](=O)[O-])c2O)cc1,T/C,[1],101 % of control
same,T/C,[2],104 % of control
same,T/C,[6],93 % of control
CS(=O)(=O)OCCN(CCOS(C)(=O)=O)c1ccc(C(=O)O)cc1,T/C,[7],159 % of control
same,T/C,[8],168 % of control and 190 % of control
same,T/C,[9],175 % of control
same,T/C,"dose: 132.0 mg/kg/injection, schedule: Q04DX003 (ip), vehicle: saline with Tween-80",159 % of control
Cc1cc(C)nc(N/N=C\c2c(Cl)cccc2Cl)n1,T/C,[10],100 % of control
same,T/C,"dose: 100.0 mg/kg/injection, schedule: Q04DX003 (ip), vehicle: Klucel (hydroxypropylcellulose) (HPC)",98 % of control
same,T/C,"dose: 200.0 mg/kg/injection, schedule: Q04DX003 (ip), vehicle: Klucel (hydroxypropylcellulose) (HPC)",94 % of control
O=c1c(-c2ccccc2)coc2cc(O)ccc12,T/C,"dose: 60.0 mg/kg/injection, schedule: Q01DX005 (ip), vehicle: saline with Tween-80",105 % of control
same,T/C,"dose: 120.0 mg/kg/injection, schedule: Q01DX005 (ip), vehicle: saline with Tween-80",89 % of control
same,T/C,"dose: 240.0 mg/kg/injection, schedule: Q01DX005 (ip), vehicle: saline with Tween-80",88 % of control
O=S(O)CCCCSSCC(O)CO (stereo not given),T/C,"dose: 30.0 mg/kg/injection, schedule: Q01DX005 (ip), vehicle: saline",101 % of control
same,T/C,"dose: 50.0 mg/kg/injection, schedule: Q01DX005 (ip), vehicle: saline",111 % of control
same,T/C,"dose: 60.0 mg/kg/injection, schedule: Q01DX005 (ip), vehicle: saline",115 % of control
same,T/C,"dose: 120.0 mg/kg/injection, schedule: Q01DX005 (ip), vehicle: saline",115 % of control
same,T/C,"dose: 200.0 mg/kg/injection, schedule: Q01DX005 (ip), vehicle: saline",111 % of control
same,T/C,"dose: 240.0 mg/kg/injection, schedule: Q01DX005 (ip), vehicle: saline",117 % of control
C[CH2][Pb]([CH2]C)([CH2]C)[O]C(=O)c1ccccc1,T/C,"dose: 0.75 mg/kg/injection, schedule: Q01DX009 (ip), vehicle: Klucel (hydroxypropylcellulose) (HPC)",113 % of control
same,T/C,"dose: 1.5 mg/kg/injection, schedule: Q01DX009 (ip), vehicle: Klucel (hydroxypropylcellulose) (HPC)",115 % of control
same,T/C,"dose: 3.0 mg/kg/injection, schedule: Q01DX009 (ip), vehicle: Klucel (hydroxypropylcellulose) (HPC)",123 % of control
same,T/C,"dose: 6.0 mg/kg/injection, schedule: Q01DX009 (ip), vehicle: Klucel (hydroxypropylcellulose) (HPC)",123 % of control
same,T/C,"dose: 12.0 mg/kg/injection, schedule: Q01DX009 (ip), vehicle: Klucel (hydroxypropylcellulose) (HPC)",97 % of control
Cc1ccccc1S(=O)(=O)F,T/C,[7],100 % of control
same,T/C,"dose: 25.0 mg/kg/injection, schedule: Q04DX003 (ip), vehicle: saline with Tween-80",100 % of control
same,T/C,[8],100 % of control
same,T/C,"dose: 50.0 mg/kg/injection, schedule: Q04DX003 (ip), vehicle: saline with Tween-80",100 % of control
same,T/C,[9],109 % of control
same,T/C,"dose: 100.0 mg/kg/injection, schedule: Q04DX003 (ip), vehicle: saline with Tween-80",100 % of control
Cc1ccc(CCNC(=O)c2c3nc4c(C(=O)NCCc5ccc(C)cc5)cccc4oc-3cc(=O)c2N)cc1,T/C,[1],93 % of control
same,T/C,[2],87 % of control
same,T/C,[6],100 % of control
[NH-]NC(=S)[S-].[NH-]NC(=S)[S-].[Pt+4],T/C,"dose: 12.5 mg/kg/injection, schedule: Q04DX003 (ip), vehicle: Klucel (hydroxypropylcellulose) (HPC)",103 % of control
same,T/C,"dose: 25.0 mg/kg/injection, schedule: Q04DX003 (ip), vehicle: Klucel (hydroxypropylcellulose) (HPC)",100 % of control
same,T/C,[10],109 % of control
COc1ccc2c(c1)CCC1C=NOC21 (stereo not given),T/C,"dose: 50.0 mg/kg/injection, schedule: Q01DX005 (ip), vehicle: Klucel (hydroxypropylcellulose) (HPC)",97 % of control
same,T/C,"dose: 100.0 mg/kg/injection, schedule: Q01DX005 (ip), vehicle: Klucel (hydroxypropylcellulose) (HPC)",103 % of control
same,T/C,"dose: 200.0 mg/kg/injection, schedule: Q01DX005 (ip), vehicle: Klucel (hydroxypropylcellulose) (HPC)",97 % of control
O=C1CCCc2c1ccc1ccccc21,T/C,[1],100 % of control
same,T/C,[2],101 % of control
same,T/C,[6],98 % of control
Cl/N=C1C=C/C(=N\Cl)C=C/1Cl,T/C,[3],110 % of control
same,T/C,[4],110 % of control
same,T/C,[5],107 % of control
C(=N\Nc1nnc2c(n1)[nH]c1ccccc12)/c1cccnc1,T/C,"dose: 12.5 mg/kg/injection, schedule: Q01DX005 (ip), vehicle: Klucel + Tween-80",106 % of control
same,T/C,"dose: 25.0 mg/kg/injection, schedule: Q01DX005 (ip), vehicle: Klucel + Tween-80",91 % of control
same,T/C,"dose: 50.0 mg/kg/injection, schedule: Q01DX005 (ip), vehicle: Klucel + Tween-80",87 % of control
